# Reference: US20070253942A1, “Lectin-directed prodrug delivery system” (Isis Innovation Limited, priority 2001, published 2007)
# Experiment: Tritosomal stability of p-nitrophenyl glycosides
# Type: in vitro ADME, rat
# Settings: for Readings from spectrometer, absorbance at 410 nm, Assay 1 / Readings from spectrometer, absorbance at 410 nm, Assay 2: rat, pH 5.5; for tritosomal cleavage (production of p-nitrophenol, absorbance at 410 nm): substrate 31.0 mg/ml in DMSO, 37° C., after 20 hours
# Text: One essential facet of the LEAPT concept is that the rhamnoside-capped prodrugs will be cleaved only by the selectively delivered naringinase construct. To ensure that this is possible, a lysosomal tritosome preparation was used to assess the potential cleavage of α-L-rhamnopyranosides by enzymes in the hepatocytes. p-Nitrophenyl α-L-rhamnopyranoside was used as a chromogenic prodrug mimic. If there are enzymes present in the hepatocytes capable of cleaving α-L-rhamnopyranosidic linkages, this would be detected over an extended assay by the production of p-nitrophenol. Assay conditions based on those used in 2.2.4 were recreated with the used of pNP-α-L-Rha instead of the protease substrate. The mixture was incubated at 37° C. and the absorbance at 410 nm recorded every 5 minutes.
# With the concentration of pNP-α-L-Rha increased ten-fold, the tritosomal stability of rhamnopyranosides was reassessed.
# Further assessments of the glycosidic enzymes present in the tritosomal preparation were required to allow further design of prodrugs. An assay equivalent to 2.8.7 was used to assess β-D-galactopyranosidic activity.
# Further assessments of the glycosidic enzymes present in the tritosomal preparation were required to allow further design of prodrugs. An assay equivalent to 2.3.7 was used to assess β-D-glucopyranosidic activity.
# A stock solution of p-nitrophenyl α-L-rhamnopyranoside in DMSO (3.1 mg/ml, equivalent to BzPheValArgNap solution) was used in an assay equivalent to 2.8.4.
# As no activity against α-L-rhamnopyranosides was detected in the previous assay, a higher concentration of pNPαL-Rha (31.0 mg/ml) in DMSO was used in an otherwise identical assay. In addition, the cuvette was incubated at 37° C. for 20 hours and the absorbance reading repeated.
# A stock solution of p-nitrophenyl β-D-galactopyranoside in DMSO (31.0 mg/ml) was used in an assay equivalent to 2.8.7. In addition, the cuvette was incubated at 37° C. for 20 hours and the absorbance reading repeated.
# A stock solution of p-nitrophenyl β-D-glucopyranoside in DMSO (31.0 mg/ml) was used in an assay equivalent to 2.8.7. In addition, the cuvette was incubated at 37° C. for 20 hours and the absorbance reading repeated.
smiles,measurement,setting,value
"C[C@@H]1O[C@@H](Oc2ccc([N+](=O)[O-])cc2)[C@H](O)[C@H](O)[C@H]1O [pNP-α-L-Rha, p-Nitrophenyl α-L-rhamnopyranoside]","Readings from spectrometer, absorbance at 410 nm, Assay 1","0 min, 0.093 mg/ml",0.158
same,"Readings from spectrometer, absorbance at 410 nm, Assay 2","0 min, 0.093 mg/ml",0.160
same,"Readings from spectrometer, absorbance at 410 nm, Assay 1","0 min, 0.93 mg/ml",0.173
same,"Readings from spectrometer, absorbance at 410 nm, Assay 2","0 min, 0.93 mg/ml",0.172
same,"Readings from spectrometer, absorbance at 410 nm, Assay 1","5 min, 0.093 mg/ml",0.155
same,"Readings from spectrometer, absorbance at 410 nm, Assay 2","5 min, 0.093 mg/ml",0.159
same,"Readings from spectrometer, absorbance at 410 nm, Assay 1","5 min, 0.93 mg/ml",0.169
same,"Readings from spectrometer, absorbance at 410 nm, Assay 2","5 min, 0.93 mg/ml",0.170
same,"Readings from spectrometer, absorbance at 410 nm, Assay 1","10 min, 0.093 mg/ml",0.153
same,"Readings from spectrometer, absorbance at 410 nm, Assay 2","10 min, 0.093 mg/ml",0.159
same,"Readings from spectrometer, absorbance at 410 nm, Assay 1","10 min, 0.93 mg/ml",0.166
same,"Readings from spectrometer, absorbance at 410 nm, Assay 2","10 min, 0.93 mg/ml",0.167
same,"Readings from spectrometer, absorbance at 410 nm, Assay 1","15 min, 0.093 mg/ml",0.151
same,"Readings from spectrometer, absorbance at 410 nm, Assay 2","15 min, 0.093 mg/ml",0.158
same,"Readings from spectrometer, absorbance at 410 nm, Assay 1","15 min, 0.93 mg/ml",0.165
same,"Readings from spectrometer, absorbance at 410 nm, Assay 2","15 min, 0.93 mg/ml",0.166
same,"Readings from spectrometer, absorbance at 410 nm, Assay 1","20 min, 0.093 mg/ml",0.150
same,"Readings from spectrometer, absorbance at 410 nm, Assay 2","20 min, 0.093 mg/ml",0.159
same,"Readings from spectrometer, absorbance at 410 nm, Assay 1","20 min, 0.93 mg/ml",0.162
same,"Readings from spectrometer, absorbance at 410 nm, Assay 2","20 min, 0.93 mg/ml",0.164
same,"Readings from spectrometer, absorbance at 410 nm, Assay 1","25 min, 0.093 mg/ml",0.150
same,"Readings from spectrometer, absorbance at 410 nm, Assay 2","25 min, 0.093 mg/ml",0.157
same,"Readings from spectrometer, absorbance at 410 nm, Assay 1","25 min, 0.93 mg/ml",0.161
same,"Readings from spectrometer, absorbance at 410 nm, Assay 2","25 min, 0.93 mg/ml",0.165
same,"Readings from spectrometer, absorbance at 410 nm, Assay 1","30 min, 0.093 mg/ml",0.149
same,"Readings from spectrometer, absorbance at 410 nm, Assay 2","30 min, 0.093 mg/ml",0.157
same,"Readings from spectrometer, absorbance at 410 nm, Assay 1","30 min, 0.93 mg/ml",0.158
same,"Readings from spectrometer, absorbance at 410 nm, Assay 2","30 min, 0.93 mg/ml",0.163
same,"Readings from spectrometer, absorbance at 410 nm, Assay 1","20 h, 0.93 mg/ml",0.138
same,"Readings from spectrometer, absorbance at 410 nm, Assay 2","20 h, 0.93 mg/ml",0.131
"O=[N+]([O-])c1ccc(O[C@@H]2O[C@H](CO)[C@H](O)[C@H](O)[C@H]2O)cc1 [pNP-β-D-Gal, p-nitrophenyl β-D-galactopyranoside]","tritosomal cleavage (production of p-nitrophenol, absorbance at 410 nm)",,significant amount of p-nitrophenol had been released
"O=[N+]([O-])c1ccc(O[C@@H]2O[C@H](CO)[C@@H](O)[C@H](O)[C@H]2O)cc1 [pNP-β-D-Glc, p-nitrophenyl β-D-glucopyranoside]","tritosomal cleavage (production of p-nitrophenol, absorbance at 410 nm)",,significant amount of p-nitrophenol had been released
